Data reported in the CheMixHub viscosity set.

Assay: xn = mol fraction of the nth substance listed

CCCCCCCCCCCCCCCCCCCCCC + CCCCCCCCCC
viscosity [mPa·s], 101.3 kPa
Conditions	x2 = 0.4	x2 = 0.5	x2 = 0.6	x2 = 0.799
303.2 K	–	–	–	1.47
313.2 K	2.93	2.53	2.05	1.24

Clc1ccccc1 + CCCCCCCCCC
viscosity [mPa·s], 101 kPa
Conditions	x1 = 0.1146	x1 = 0.1985	x1 = 0.31	x1 = 0.3792	x1 = 0.4894	x1 = 0.6146	x1 = 0.6949	x1 = 0.8073	x1 = 0.9173
308.15 K	0.7161	0.703	0.6849	0.6723	0.6588	0.6526	0.6521	0.6598	0.6691
313.15 K	0.6733	0.6572	0.6458	0.6387	0.6287	0.624	0.6222	0.6228	0.6302

CCCC(C)C + CCCCCCCCCCCC
298 K, 101.33 kPa
Conditions	viscosity [mPa·s]
x1 = 0.1004	1.205
x1 = 0.2007	1.075
x1 = 0.3018	0.939
x1 = 0.4027	0.8181
x1 = 0.5008	0.7124
x1 = 0.6002	0.6097
x1 = 0.6996	0.5148
x1 = 0.8002	0.4229
x1 = 0.9003	0.3443

CCCC(C)C + CCCCCCCCCCCCCC
298 K, 101.33 kPa
Conditions	viscosity [mPa·s]
x1 = 0.1041	1.795
x1 = 0.2003	1.595
x1 = 0.3021	1.362
x1 = 0.4053	1.136
x1 = 0.5024	0.9502
x1 = 0.6012	0.7806
x1 = 0.7022	0.6276
x1 = 0.8003	0.4899
x1 = 0.8985	0.3762

CCCC(C)C + CCCCCCCCCCCCCCCC
298 K, 101.33 kPa
Conditions	viscosity [mPa·s]
x1 = 0.1177	2.572
x1 = 0.2071	2.199
x1 = 0.3082	1.835
x1 = 0.4013	1.53
x1 = 0.4982	1.241
x1 = 0.6029	0.9821
x1 = 0.7034	0.7606
x1 = 0.8025	0.5679
x1 = 0.9006	0.3949

C=CC(=O)OCC + CCCCCCCCCCO
viscosity [mPa·s], 101.3 kPa
Conditions	x1 = 0.0861	x1 = 0.235	x1 = 0.302	x1 = 0.4261	x1 = 0.5383	x1 = 0.7248	x1 = 0.8036	x1 = 0.8763	x1 = 0.9389	x1 = 0.9688
298.15 K	8.526	5.017	3.969	2.618	1.895	1.076	0.86	0.702	0.602	0.563
308.15 K	6.006	3.812	3.085	2.104	1.515	0.898	0.73	–	0.525	0.497

CCc1ccccc1 + CCCCCCCCCCO
viscosity [mPa·s], 101 kPa
Conditions	298.15 K	308.15 K
x1 = 0.0666	9.53	6.54
x1 = 0.1392	7.494	5.177
x1 = 0.1932	6.24	4.343
x1 = 0.2642	4.904	3.44
x1 = 0.3355	3.841	2.703
x1 = 0.3936	3.152	2.225
x1 = 0.4483	2.623	1.883
x1 = 0.5238	2.056	1.499
x1 = 0.598	1.632	1.206
x1 = 0.6621	1.35	1.023
x1 = 0.7309	1.118	0.863
x1 = 0.7953	0.951	0.744
x1 = 0.8668	0.802	0.659
x1 = 0.9396	0.693	0.597

C=CC(=O)OCC + CCCCCCCCO
viscosity [mPa·s], 101.3 kPa
Conditions	x1 = 0.0771	x1 = 0.2017	x1 = 0.2664	x1 = 0.3869	x1 = 0.4933	x1 = 0.6865	x1 = 0.7722	x1 = 0.8504	x1 = 0.9275	x1 = 0.9634
298.15 K	5.444	3.576	2.914	2.043	1.543	0.96	0.785	0.681	0.582	0.546
308.15 K	4.096	2.812	2.301	1.663	1.268	0.825	0.678	0.586	0.507	0.478

C=CC(=O)OCC + CCCCCCCO
viscosity [mPa·s], 101.3 kPa
Conditions	x1 = 0.0736	x1 = 0.1906	x1 = 0.2456	x1 = 0.3599	x1 = 0.4687	x1 = 0.6637	x1 = 0.7551	x1 = 0.8399	x1 = 0.9223	x1 = 0.9662
298.15 K	4.585	3.017	2.513	1.864	1.399	0.923	0.778	0.655	0.576	0.534
308.15 K	3.306	2.411	2.01	1.531	1.18	0.778	0.658	0.564	0.505	0.471

COC(C)(C)C + CCCCCCO
viscosity [mPa·s], 101 kPa
Conditions	x1 = 0.0204	x1 = 0.0304	x1 = 0.0495
298.15 K	4.315	4.175	3.925
303.15 K	–	–	3.395

COCCOCCOCCOCCOC + CCCCCCO
viscosity [mPa·s], 100 kPa
Conditions	x2 = 0.1043	x2 = 0.2031	x2 = 0.3014	x2 = 0.4023	x2 = 0.5043	x2 = 0.6003	x2 = 0.7007	x2 = 0.8057	x2 = 0.8986
293.15 K	3.597	3.447	3.317	3.222	3.167	3.167	3.216	3.482	3.977
298.15 K	3.177	3.048	2.933	2.852	2.8	2.797	2.835	3.049	3.453
303.15 K	2.83	2.716	2.617	2.543	2.494	2.488	2.52	2.688	3.023
308.15 K	2.538	2.438	2.35	2.282	2.237	2.227	2.251	2.387	2.661
313.15 K	2.293	2.204	2.124	2.062	2.019	2.007	2.023	2.131	2.356
318.15 K	2.093	2.012	1.94	1.88	1.845	1.826	1.838	1.926	2.111

Clc1cccc2ccccc12 + CCCCCCO
viscosity [mPa·s], 101.33 kPa
Conditions	x1 = 0.1047	x1 = 0.2004	x1 = 0.3023	x1 = 0.3992	x1 = 0.5019	x1 = 0.6012	x1 = 0.6993	x1 = 0.8002	x1 = 0.9013
298.15 K	3.951	3.68	3.366	3.133	2.903	2.781	2.706	2.638	2.647
303.15 K	3.335	3.105	2.858	2.67	2.506	2.455	2.44	2.304	2.337
308.15 K	2.608	2.423	2.248	2.084	1.971	1.951	1.942	1.969	2.066

COC(C)(C)C + CCCCCO
Conditions	viscosity [mPa·s]
298.15 K, 101.33 kPa, x1 = 0.0301	3.179
298.15 K, 101.33 kPa, x1 = 0.0484	3.008
298.15 K, 101.33 kPa, x1 = 0.1133	2.461
298.15 K, 101.33 kPa, x1 = 0.1663	2.091
298.15 K, 101.33 kPa, x1 = 0.2824	1.56
298.15 K, 101.33 kPa, x1 = 0.3286	1.346
298.15 K, 101.33 kPa, x1 = 0.3767	1.174
298.15 K, 101.33 kPa, x1 = 0.4229	1.052
298.15 K, 101.33 kPa, x1 = 0.4688	0.939
298.15 K, 101.33 kPa, x1 = 0.5137	0.843
298.15 K, 101.33 kPa, x1 = 0.5239	0.843
298.15 K, 101.33 kPa, x1 = 0.5817	0.725
298.15 K, 101.33 kPa, x1 = 0.6305	0.653
298.15 K, 101.33 kPa, x1 = 0.6824	0.587
298.15 K, 101.33 kPa, x1 = 0.7282	0.538
298.15 K, 101.33 kPa, x1 = 0.7788	0.487
298.15 K, 101.33 kPa, x1 = 0.8339	0.44
298.15 K, 101.33 kPa, x1 = 0.8897	0.398
298.15 K, 101.33 kPa, x2 = 0.0178	0.349
303.15 K, 101 kPa, x1 = 0.0401	2.675

Clc1cccc2ccccc12 + CCCCCO
viscosity [mPa·s], 101.33 kPa
Conditions	x1 = 0.1019	x1 = 0.1914	x1 = 0.3014	x1 = 0.371	x1 = 0.4944	x1 = 0.6006	x1 = 0.6961	x1 = 0.7909	x1 = 0.9013
298.15 K	3.204	3.078	2.928	2.833	2.708	2.669	2.659	2.702	2.761
303.15 K	2.83	2.704	2.555	2.473	2.388	2.364	2.358	2.393	2.464
308.15 K	2.469	2.37	2.232	2.179	2.115	2.107	2.107	2.134	2.217

Clc1ccccc1 + CCCCCO
293.15 K, 101.33 kPa
Conditions	viscosity [mPa·s]
x2 = 0.0511	0.816
x2 = 0.1017	0.852
x2 = 0.1449	0.892
x2 = 0.198	0.936
x2 = 0.2665	1.017
x2 = 0.3688	1.195
x2 = 0.4687	1.387
x2 = 0.5602	1.637
x2 = 0.5789	1.697
x2 = 0.7339	2.339
x2 = 0.8618	3.062
x2 = 0.9524	3.666

CCc1ccccc1 + CCCCO
298.15 K, 101.33 kPa
Conditions	viscosity [mPa·s]
x2 = 0.1608	0.666
x2 = 0.2901	0.735
x2 = 0.4235	0.849
x2 = 0.5335	0.999
x2 = 0.6392	1.183
x2 = 0.7407	1.435
x2 = 0.8339	1.756
x2 = 0.9191	2.126

COC(C)(C)C + CCCCO
viscosity [mPa·s], 101 kPa
Conditions	x1 = 0.1006	x1 = 0.102	x1 = 0.2	x1 = 0.2998	x1 = 0.3995	x1 = 0.5111	x1 = 0.6008	x1 = 0.6996	x1 = 0.7994	x1 = 0.9005
298.15 K	–	1.94	1.48	1.14	0.902	0.719	0.613	0.529	0.46	0.401
303.15 K	1.695	–	–	–	–	–	–	–	–	–

COCCOCCOCCOCCOC + CCCCO
viscosity [mPa·s], 101 kPa
Conditions	298.15 K	303.15 K	308.15 K
x2 = 0.1013	–	–	2.525
x2 = 0.7991	2.165	1.945	–

Clc1cccc2ccccc12 + CCCCO
viscosity [mPa·s], 101.33 kPa
Conditions	x1 = 0.1002	x1 = 0.1997	x1 = 0.2969	x1 = 0.4016	x1 = 0.5004	x1 = 0.599	x1 = 0.6949	x1 = 0.8006	x1 = 0.8969
298.15 K	2.486	2.447	2.383	2.376	2.379	2.43	2.491	2.591	2.697
303.15 K	2.176	2.149	2.11	2.102	2.109	2.153	2.207	2.301	2.414
308.15 K	1.927	1.894	1.865	1.854	1.864	1.914	1.977	2.059	2.173
